This is an account of results in ChEMBL document CHEMBL3616451, “Design and synthesis of 11α-substituted bile acid derivatives as potential anti-tuberculosis agents” (Bioorg Med Chem Lett, 2015).

SMILES strings stand for the structures. Values after ≈ are worked out from the molar mass of the structure shown. Active and inactive are the calls of the source. No cut-off for these calls is given here.

For experiment [1], the system named is Mycobacterium tuberculosis. The experiment can be described thus: Anti-tubercular activity against rifampicin, isoniazid, ethambutol and pyrazinamide-sensitive Mycobacterium tuberculosis H37Ra ATCC 25177 assessed as growth inhibition at 30 ug/ml by XRMA method relative to control. It is filed as functional. Conditions: read-out: GI.
Experiment [2] concerns Mycobacterium tuberculosis. The experiment can be described thus: Anti-tubercular activity against rifampicin, isoniazid, ethambutol and pyrazinamide-sensitive Mycobacterium tuberculosis H37Ra ATCC 25177 assessed as growth inhibition at 10 ug/ml by XRMA method relative to control. The experiment is classed as functional. As to conditions: for inhibition of growth at 10 µg/mL: read-out: GI.

The subject of experiment [3] is Mycobacterium tuberculosis. The experiment can be described thus: Anti-tubercular activity against rifampicin, isoniazid, ethambutol and pyrazinamide-sensitive Mycobacterium tuberculosis H37Ra ATCC 25177 assessed as growth inhibition at 3 ug/ml by XRMA method relative to control. It is filed as functional. Conditions: for inhibition of growth at 3 µg/mL: read-out: GI.

The next experiment relates to Escherichia coli. The experiment can be described thus: Antibacterial activity against Escherichia coli […] assessed as growth inhibition at 30 ug/ml relative to control. It is filed as functional. Conditions: read-out: GI.
The next experiment deals with Pseudomonas fluorescens. The experiment can be described thus: Antibacterial activity against Pseudomonas fluorescens ATCC 13525 assessed as growth inhibition at 30 ug/ml relative to control. The experiment is classed as functional.
In a further experiment the test system is Staphylococcus aureus. As to the kind of experiment: Antibacterial activity against Staphylococcus aureus ATCC 29213 assessed as growth inhibition at 30 ug/ml relative to control. It is filed as functional.
The next experiment deals with Bacillus subtilis. The experiment can be described thus: Antibacterial activity against Bacillus subtilis ATCC 23857 assessed as growth inhibition at 30 ug/ml relative to control. It is filed as functional.
Experiment [4] concerns Mycobacterium tuberculosis. As to the kind of experiment: Anti-tubercular activity against rifampicin, isoniazid, ethambutol and pyrazinamide-sensitive dormant phage of Mycobacterium tuberculosis H37Ra ATCC 25177 by serial dilution method. The experiment is classed as functional, organism-based.
The test system of experiment [5] is Mycobacterium tuberculosis. As to the kind of experiment: Anti-tubercular activity against rifampicin, isoniazid, ethambutol and pyrazinamide-sensitive active phage of Mycobacterium tuberculosis H37Ra ATCC 25177 by serial dilution method. It is filed as functional, organism-based.
Experiment [6] has as its system Mycobacterium tuberculosis. The experiment can be described thus: Anti-tubercular activity against rifampicin, isoniazid, ethambutol and pyrazinamide-sensitive dormant phage of Mycobacterium tuberculosis H37Ra ATCC 25177 infected in human THP1 cells by neutral red assay. The experiment is classed as functional, organism-based. As to conditions: H37Ra ATCC 25177, THP-1.

Experiment [7] has as its system Mycobacterium tuberculosis. The experiment can be described thus: Anti-tubercular activity against rifampicin, isoniazid, ethambutol and pyrazinamide-sensitive active phage of Mycobacterium tuberculosis H37Ra ATCC 25177 infected in human THP1 cells by neutral red assay. It is filed as functional, organism-based. Conditions: H37Ra ATCC 25177, THP-1.

As to `COC(=O)CC[C@@H](C)[C@H]1CC[C@H]2[C@H]3[C@H]([C@H](n4cc(-c5ccccc5)nn4)C(=O)[C@]12C)[C@@]1(C)CC[C@@H](OC(C)=O)C[C@H]1C[C@H]3OC(C)=O`, the inhibition of growth at 30 µg/mL turned out to be 74% in [1], 17.8% with Escherichia coli and 20% in the experiment with Bacillus subtilis (read-out: GI). Also, the inhibition of growth at 10 µg/mL in [2] came to 68%. In addition, in [3], the inhibition of growth at 3 µg/mL was 67%. The “growth inhibition (GI)” value with Pseudomonas fluorescens and in the experiment with Staphylococcus aureus was “inactive” each time.
Turning to `COC(=O)CC[C@@H](C)[C@H]1CC[C@H]2[C@H]3[C@H]([C@H](NC(=O)[C@H]4CCCN4)C(=O)[C@]12C)[C@@]1(C)CC[C@@H](OC(C)=O)C[C@H]1C[C@H]3OC(C)=O`, the inhibition of growth at 30 µg/mL is 71% in [1], 23.9% in the experiment on Escherichia coli and 20.1% with Pseudomonas fluorescens (read-out: GI). The inhibition of growth at 10 µg/mL in experiment [2] was 66%. Besides, in experiment [3], the inhibition of growth at 3 µg/mL is 55%. For the same compound, the “growth inhibition (GI)” value in the experiment with Staphylococcus aureus and with Bacillus subtilis was “inactive” each time.
Regarding `COC(=O)CC[C@@H](C)[C@H]1CC[C@H]2[C@@H]3[C@H](OC(C)=O)C[C@@H]4C[C@H](OC(C)=O)CC[C@]4(C)[C@H]3CC(=O)[C@]12C`, in [1], the inhibition of growth at 30 µg/mL was found to be 34%. Besides, the inhibition of growth at 10 µg/mL in experiment [2] amounted to 28%. For the same compound, the inhibition of growth at 3 µg/mL in [3] amounted to 13%.
Turning to `CO[C@H]1/C=C/O[C@@]2(C)Oc3c(C)c(O)c4c(O)c(c(/C=N/N5CCN(C)CC5)c(O)c4c3C2=O)NC(=O)/C(C)=C\C=C\[C@H](C)[C@H](O)[C@@H](C)[C@@H](O)[C@@H](C)[C@H](OC(C)=O)[C@@H]1C` [RIFAMPIN], the IC50 in experiment [4] is 1.4 ng/mL (≈ 0.0017 µM); in experiment [5], 1.8 ng/mL (≈ 0.00219 µM); in [6], 1.8 ng/mL (≈ 0.00219 µM); in [7], 2.1 ng/mL (≈ 0.00255 µM). For the same compound, the IC90 in experiment [4] was determined as 43 ng/mL (≈ 0.0523 µM); in experiment [5], 48 ng/mL (≈ 0.0583 µM); in experiment [6] it was 48 ng/mL (≈ 0.0583 µM); in [7], 51 ng/mL (≈ 0.062 µM).
Consider `NNC(=O)c1ccncc1` [ISONIAZID], for which the half-maximal inhibitory concentration (IC50) worked out at 2.3 ng/mL (≈ 0.0168 µM) in [4], 1.9 ng/mL (≈ 0.0139 µM) in experiment [5], 2.4 ng/mL (≈ 0.0175 µM) in experiment [6] and 2.4 ng/mL (≈ 0.0175 µM) in experiment [7]. Besides, the IC90 in experiment [4] is 75 ng/mL (≈ 0.547 µM); in experiment [5], 74 ng/mL (≈ 0.54 µM); in [6] it was 7.8 ng/mL (≈ 0.0569 µM); in [7] it was 75 ng/mL (≈ 0.547 µM).
For the compound `C[C@H](CCC(=O)O)[C@H]1CC[C@H]2[C@@H]3[C@H](O)C[C@@H]4C[C@H](O)CC[C@]4(C)[C@H]3C[C@H](O)[C@]12C` [CHOLIC ACID], in experiment [1], the inhibition of growth at 30 µg/mL is 53%. Further, the inhibition of growth at 10 µg/mL in experiment [2] was 36%. For the same compound, in [3], the “growth inhibition (GI)” value is “inactive”.
For `COC(=O)CC[C@@H](C)[C@H]1CC[C@H]2[C@H]3[C@H]([C@H](N=[N+]=[N-])C(=O)[C@]12C)[C@@]1(C)CC[C@@H](OC(C)=O)C[C@H]1C[C@H]3OC(C)=O`, the inhibition of growth at 30 µg/mL in experiment [1] came to 12%. For the same compound, the “growth inhibition (GI)” value in experiment [2] and in [3] was “inactive” throughout.
In the case of `COC(=O)CC[C@@H](C)[C@H]1CC[C@H]2[C@H]3[C@H]([C@H](NC(=O)C4CN4)C(=O)[C@]12C)[C@@]1(C)CC[C@@H](OC(C)=O)C[C@H]1C[C@H]3OC(C)=O` (stereo not given in full), the inhibition of growth at 30 µg/mL in experiment [1] came to 14%. For the same compound, the inhibition of growth at 10 µg/mL in experiment [2] came to 10%. Besides, in [3], the “growth inhibition (GI)” value is “inactive”.
Turning to `COC(=O)CC[C@@H](C)[C@H]1CC[C@H]2[C@H]3[C@H]([C@H](N)C(=O)[C@]12C)[C@@]1(C)CC[C@@H](OC(C)=O)C[C@H]1C[C@H]3OC(C)=O`, the inhibition of growth at 30 µg/mL in experiment [1] was less than 1%. The inhibition of growth at 10 µg/mL in experiment [2] was less than 1%. Besides, in experiment [3], the “growth inhibition (GI)” value is “inactive”.
